{
  "source": "ChEMBL document CHEMBL5543121",
  "about": "“Drug Repurposing of ACT001 to Discover Novel Promising Sulfide Prodrugs with Improved Safety and Potent Activity for Neutrophil-Mediated Antifungal Immunotherapy” (J Med Chem, 2024)",
  "key": {"[1]": {"test_system": "Polymorphonuclear neutrophil", "assay": "Inhibition of fungal curdlan induced CXCL1 protein expression in mouse polymorphonuclear neutrophils at 40 uM incubated for 4 hrs by ELISA", "type": "functional, cell-based"}, "[2]": {"assay": "Acute toxicity in C57BL/6 mouse assessed as histopathological changes in liver at 500 mg/kg, po administered as single dose and measured after 14 days", "type": "organism-based", "details": "in vivo, 336 h, time 14 day"}, "Candida albicans [3]": {"test_system": "Candida albicans", "assay": "Induction of neutrophil-mediated antifungal immunity against Candida albicans SC5314 infected in mouse assessed as increase in animal survival rate at 50 to 100 mg/kg, po administered once a day for 3 days", "type": "functional, organism-based", "details": "dose 50-100 mg/kg, time 3.0 day"}, "Neutrophil [4]": {"test_system": "Neutrophil", "assay": "Effect on STAT3 protein level in curdlan induced mouse bone marrow neutrophils at 40 uM measured upto 60 mins by Western blot analysis", "type": "functional, cell-based"}, "[5]": {"assay": "Acute toxicity in C57BL/6 mouse assessed as effect on AST level in serum at 500 mg/kg, po administered as single dose and measured every day for 14 days", "type": "organism-based", "details": "in vivo, 336 h, time 14 day"}, "[6]": {"assay": "Acute toxicity in C57BL/6 mouse assessed as histopathological changes in kidney at 500 mg/kg, po administered as single dose and measured after 14 days", "type": "organism-based", "details": "in vivo, 336 h, time 14 day"}, "[7]": {"assay": "AUC (0 to infinity) in male Sprague-Dawley rat at 2 mg/kg, iv by LC-MS/MS analysis", "type": "ADME, organism-based", "details": "in vivo"}, "Candida albicans [8]": {"test_system": "Candida albicans", "assay": "Induction of neutrophil-mediated antifungal immunity against Candida albicans SC5314 infected in mouse assessed as reduction in PD-L1 positive Ly6G positive neutrophils in bone marrow at 50 to 100 mg/kg, po administered once a day for 3 days by flow cytometry analysis", "type": "functional, organism-based", "details": "dose 50-100 mg/kg, time 3.0 day"}, "[9]": {"assay": "AUC (0 to t) in male Sprague-Dawley rat at 2 mg/kg, iv by LC-MS/MS analysis", "type": "ADME, organism-based", "details": "in vivo"}, "Neutrophil [10]": {"test_system": "Neutrophil", "assay": "Induction of neutrophil-mediated antifungal immunity against Candida albicans SC5314 infected in mouse assessed as increase in neutrophil infiltration in kidney at 50 to 100 mg/kg, po administered once a day for 3 days", "type": "functional, organism-based", "details": "dose 50-100 mg/kg, time 3.0 day"}, "[11]": {"assay": "Clearance in male Sprague-Dawley rat at 2 mg/kg, iv by LC-MS/MS analysis", "type": "ADME, organism-based", "details": "in vivo"}, "[12]": {"assay": "Cmax in male Sprague-Dawley rat at 2 mg/kg, iv by LC-MS/MS analysis", "type": "ADME, organism-based", "details": "in vivo"}, "[13]": {"assay": "Volume of distribution at steady state in male Sprague-Dawley rat at 2 mg/kg, iv by LC-MS/MS analysis", "type": "ADME, organism-based", "details": "in vivo, read-out: Vdss"}, "[14]": {"assay": "Half life in male Sprague-Dawley rat at 10 mg/kg, po by LC-MS/MS analysis", "type": "ADME, organism-based", "details": "in vivo"}, "[15]": {"assay": "Acute toxicity in C57BL/6 mouse assessed as change in spleen weight at 500 mg/kg, po administered as single dose and measured after 14 days", "type": "organism-based", "details": "in vivo, 336 h, time 14 day"}, "[16]": {"assay": "Subacute toxicity in C57BL/6 mouse assessed as histopathological changes in spleen at 100 mg/kg, po administered daily for 14 days", "type": "organism-based", "details": "in vivo, 336 h, time 14 day"}, "[17]": {"molecular_target": "Signal transducer and activator of transcription 3 (Homo sapiens, UniProt P40763)", "sequence (P40763 whole entry)": "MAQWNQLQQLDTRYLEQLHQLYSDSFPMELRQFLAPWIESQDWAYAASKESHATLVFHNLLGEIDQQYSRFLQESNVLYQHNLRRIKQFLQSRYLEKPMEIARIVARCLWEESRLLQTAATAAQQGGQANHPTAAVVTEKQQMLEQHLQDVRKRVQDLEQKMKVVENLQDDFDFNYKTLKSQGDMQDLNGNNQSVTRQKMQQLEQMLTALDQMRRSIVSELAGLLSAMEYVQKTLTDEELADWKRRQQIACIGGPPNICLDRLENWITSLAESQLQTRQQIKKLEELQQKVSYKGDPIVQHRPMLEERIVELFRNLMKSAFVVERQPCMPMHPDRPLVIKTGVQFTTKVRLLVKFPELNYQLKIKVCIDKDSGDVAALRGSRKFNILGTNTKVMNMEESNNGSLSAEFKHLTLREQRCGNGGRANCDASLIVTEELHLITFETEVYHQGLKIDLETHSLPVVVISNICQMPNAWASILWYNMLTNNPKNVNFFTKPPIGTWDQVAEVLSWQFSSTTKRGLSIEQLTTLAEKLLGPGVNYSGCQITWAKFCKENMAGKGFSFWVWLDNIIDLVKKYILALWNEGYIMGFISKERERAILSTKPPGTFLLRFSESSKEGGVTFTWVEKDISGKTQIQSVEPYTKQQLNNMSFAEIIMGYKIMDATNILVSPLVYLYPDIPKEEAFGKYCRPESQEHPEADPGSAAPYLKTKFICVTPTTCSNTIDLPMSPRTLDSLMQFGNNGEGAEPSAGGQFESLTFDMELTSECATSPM", "assay": "Binding affinity to His-tagged human recombinant STAT3 assessed as dissociation constant by MST assay"}, "[18]": {"assay": "Induction of apoptosis in mouse neutrophils assessed as live cells at 20 uM incubated for 16 hrs by Annexin V-FITC/PI staining based flow cytometry analysis (reference value: 46.6%)", "type": "toxicity, cell-based, Neutrophil", "details": "read-out: Activity"}, "Neutrophil [19]": {"test_system": "Neutrophil", "assay": "Downregulation of phosphorylated STAT3 protein level at Ser727 residue in curdlan induced mouse bone marrow neutrophils at 40 uM measured upto 60 mins by Western blot analysis", "type": "functional, cell-based"}, "[20]": {"assay": "Subacute toxicity in C57BL/6 mouse assessed as change in liver weight at 100 mg/kg, po administered daily for 14 days", "type": "organism-based", "details": "in vivo, 336 h, time 14 day"}, "[21]": {"assay": "Acute toxicity in C57BL/6 mouse assessed as effect on creatinine level in serum at 500 mg/kg, po administered as single dose and measured every day for 14 days", "type": "organism-based", "details": "in vivo, 336 h, time 14 day"}, "Candida albicans [22]": {"test_system": "Candida albicans", "assay": "Induction of neutrophil-mediated antifungal immunity against Candida albicans SC5314 infected in mouse assessed as inhibition of CXCL1 protein expression in bone marrow at 50 to 100 mg/kg, po administered once a day for 3 days by ELISA", "type": "functional, organism-based", "details": "dose 50-100 mg/kg, time 3.0 day"}, "[23]": {"assay": "Potency index, ratio of test compound IC50 to ACT001 IC50 for cytotoxicity against mouse neutrophils assessed as reduction in cell viability incubated for 16 hrs by flow cytometry analysis", "type": "toxicity, cell-based, Neutrophil", "details": "read-out: Ratio IC50"}, "[24]": {"assay": "Inhibition of fungal curdlan induced PD-L1 expression in mouse neutrophils at 40 uM relative to control", "type": "functional, Neutrophil", "details": "Mus musculus, Neutrophil"}, "[25]": {"assay": "AUC (0 to t) in male Sprague-Dawley rat at 10 mg/kg, po by LC-MS/MS analysis", "type": "ADME, organism-based", "details": "in vivo"}, "Candida albicans [26]": {"test_system": "Candida albicans", "assay": "Antifungal activity against Candida albicans SC5314 assessed as inhibition of fungal growth at 0.25 to 128 ug/ml measured every 3 hrs for 24 hrs by absorbance based analysis", "type": "functional, organism-based", "details": "dose 0.25-128 µg/ml"}, "[27]": {"assay": "Subacute toxicity in C57BL/6 mouse assessed as histopathological changes in heart at 100 mg/kg, po administered daily for 14 days", "type": "organism-based", "details": "in vivo, 336 h, time 14 day"}, "[28]": {"assay": "Subacute toxicity in C57BL/6 mouse assessed as change in spleen weight at 100 mg/kg, po administered daily for 14 days", "type": "organism-based", "details": "in vivo, 336 h, time 14 day"}, "Candida albicans [29]": {"test_system": "Candida albicans", "assay": "Induction of neutrophil-mediated antifungal immunity against Candida albicans SC5314 infected in mouse assessed as inhibition of CXCL2 protein expression in bone marrow at 50 to 100 mg/kg, po administered once a day for 3 days by ELISA", "type": "functional, organism-based", "details": "dose 50-100 mg/kg, time 3.0 day"}, "[30]": {"assay": "Acute toxicity in C57BL/6 mouse assessed as change in liver weight at 500 mg/kg, po administered as single dose and measured after 14 days", "type": "organism-based", "details": "in vivo, 336 h, time 14 day"}, "Neutrophil [31]": {"test_system": "Neutrophil", "assay": "Induction of apoptosis in mouse neutrophils assessed as dead cells at 40 uM incubated for 16 hrs by Annexin V-FITC/PI staining based flow cytometry analysis (reference value: 2.04%)", "type": "toxicity, cell-based"}, "[32]": {"assay": "Acute toxicity in C57BL/6 mouse assessed as body weight loss at 500 mg/kg, po administered as single dose and measured every day for 14 days", "type": "organism-based", "details": "in vivo, 336 h, time 14 day"}, "Candida albicans [33]": {"test_system": "Candida albicans", "assay": "Antifungal activity against candida albicans SC5314 infected in mouse assessed as reduction in fungal burden in kidney at 200 mg/kg, po administered on day 1 and 3", "type": "functional, organism-based", "details": "time 1-3 day"}, "[34]": {"assay": "Acute toxicity in C57BL/6 mouse assessed as abnormal behavior at 500 mg/kg, po administered as single dose and measured every day for 14 days", "type": "organism-based", "details": "in vivo, 336 h, time 14 day"}, "[35]": {"assay": "Tmax in male Sprague-Dawley rat at 10 mg/kg, po by LC-MS/MS analysis", "type": "ADME, organism-based", "details": "in vivo"}, "[36]": {"assay": "Subacute toxicity in C57BL/6 mouse assessed as body weight loss at 100 mg/kg, po administered daily for 14 days and measured every day", "type": "organism-based", "details": "in vivo, 336 h, time 14 day"}, "[37]": {"assay": "Subacute toxicity in C57BL/6 mouse assessed as histopathological changes in lung at 100 mg/kg, po administered daily for 14 days", "type": "organism-based", "details": "in vivo, 336 h, time 14 day"}, "Candida albicans [38]": {"test_system": "Candida albicans", "assay": "Antifungal activity against candida albicans SC5314 infected in mouse assessed as reduction in PD-L1 positive Ly6G-positive neutrophils in kidney at 200 mg/kg, po administered on day 1 and 3", "type": "functional, organism-based", "details": "time 1-3 day"}},
  "note": "The source made the active and inactive calls. The calls are words filed in the database; no cut-off is given here.",
  "data": [
    {"smiles": "C[C@@]1(O)CC[C@]23O[C@@]2(C)CC[C@@H]2[C@H](OC(=O)[C@H]2CS(=O)(=O)c2c(Cl)cccc2Cl)[C@@H]13", "values": [
      {"measurement": "inhibition", "setting": "[1]", "result": "Active"},
      {"measurement": "Activity", "setting": "[2]", "result": "Non-Toxic"},
      {"measurement": "Activity", "setting": "Candida albicans [3]", "result": "Active"},
      {"measurement": "Activity", "setting": "Neutrophil [4]", "result": "inactive"},
      {"measurement": "Activity", "setting": "[5]", "result": "Non-Toxic"},
      {"measurement": "Activity", "setting": "[6]", "result": "Non-Toxic"},
      {"measurement": "AUC(0-inf)", "setting": "[7]", "result": 75.4, "unit": "ng·h/mL"},
      {"measurement": "Activity", "setting": "Candida albicans [8]", "result": "Active"},
      {"measurement": "AUC(0-t)", "setting": "[9]", "result": 73.9, "unit": "ng·h/mL"},
      {"measurement": "Activity", "setting": "Neutrophil [10]", "result": "Active"},
      {"measurement": "clearance", "setting": "[11]", "result": 453, "unit": "mL/min/kg"},
      {"measurement": "Cmax", "setting": "[12]", "result": 175, "unit": "ng/mL"},
      {"measurement": "Vd", "setting": "[13]", "result": 7.46, "unit": "L/kg"},
      {"measurement": "half-life", "setting": "[14]", "result": 87.6, "unit": "min"},
      {"measurement": "Activity", "setting": "[15]", "result": "Non-Toxic"},
      {"measurement": "Activity", "setting": "[16]", "result": "Non-Toxic"},
      {"measurement": "Kd", "setting": "[17]", "result": 90.5, "unit": "nM"},
      {"measurement": "viability at 16 h, 20 µM", "setting": "[18]", "result": 41.4, "unit": "%"},
      {"measurement": "Activity", "setting": "Neutrophil [19]", "result": "Active"},
      {"measurement": "Activity", "setting": "[20]", "result": "Non-Toxic"},
      {"measurement": "Activity", "setting": "[21]", "result": "Non-Toxic"},
      {"measurement": "Activity", "setting": "Candida albicans [22]", "result": "Active"},
      {"measurement": "selectivity ratio at 16 h", "setting": "[23]", "result": 10.9},
      {"measurement": "inhibition at 40 µM", "setting": "[24]", "result": 80.2, "unit": "%"},
      {"measurement": "AUC(0-t)", "setting": "[25]", "result": 167, "unit": "ng·h/mL"},
      {"measurement": "Activity", "setting": "Candida albicans [26]", "result": "inactive"},
      {"measurement": "Activity", "setting": "[27]", "result": "Non-Toxic"},
      {"measurement": "Activity", "setting": "[28]", "result": "Non-Toxic"},
      {"measurement": "Activity", "setting": "Candida albicans [29]", "result": "Active"},
      {"measurement": "Activity", "setting": "[30]", "result": "Non-Toxic"},
      {"measurement": "Activity", "setting": "Neutrophil [31]", "result": 2.72, "unit": "%"},
      {"measurement": "Activity", "setting": "[32]", "result": "Non-Toxic"},
      {"measurement": "Activity", "setting": "Candida albicans [33]", "result": "Active"},
      {"measurement": "Activity", "setting": "[34]", "result": "Non-Toxic"},
      {"measurement": "Tmax", "setting": "[35]", "result": 19.8, "unit": "min"},
      {"measurement": "Activity", "setting": "[36]", "result": "Non-Toxic"},
      {"measurement": "Activity", "setting": "[37]", "result": "Non-Toxic"},
      {"measurement": "Activity", "setting": "Candida albicans [38]", "result": "Active"}
    ]}
  ]
}
